Experimental data reported in patent publication US20230322785A1, “ADENOSINE A2A AND A2B RECEPTOR DUAL ANTAGONISTS FOR IMMUNO-ONCOLOGY” (Merck Sharp & Dohme LLC, priority 2020, published 2023).

biological target: T1, human A2A adenosine receptor (Homo sapiens, UniProt P29274); test: A2A binding affinity, Method (B): scintillation proximity assay (SPA) with [3H]SCH58261; conditions: membranes of HEK293 or CHO cells expressing the human receptor
T1 construct: expressed in transfected cells; host or cells: HEK293 or CHO cells
From the text: Method (A) describes the procedure used to measure A2A binding affinity using radioligand binding. Method (B) describes the procedure used to measure A2A binding affinity using SPA technology. The method used to measure A2B binding affinity is also described below. The method used to determine the A2A IC50 value reported for each compound in the table is indicated next to the reported value. The A2B IC50 value measured using the A2B binding affinity assay is shown in the table next to the compound under the corresponding A2A value.
The A2A receptor affinity binding assay measured the amount of binding of a tritiated ligand with high affinity for the A2A adenosine receptor to membranes made from HEK293 or CHO cells recombinantly expressing the human A2A adenosine receptor, in the presence of varying concentrations of a compound of the invention. The data were generated using either filtration binding or a homogenous scintillation proximity assay (SPA).
Method (B): Measurement of A2A Binding Affinity Using SPA
Binding affinity using SPA was conducted as follows. Test compounds (50 nL) were dispensed into individual wells of a 384-well OptiPlate™ well (Perkin Elmer) by Echo® acoustic liquid transfer (Labcyte). 20 µL of 1.25 nM [^3H] SCH58261 ((7-(2-phenylethyl)-5-amino-2-(2-furyl)-pyrazolo-[4,3-e]-1,2,4-triazolo[1,5-c]pyrimidine)) in DPBS assay buffer (Dulbecco’s phosphate buffered saline without calcium and magnesium, ThermoFisher Scientific, Cat. No. A1285601) supplemented with 10 mM MgCl2 was added. A2A receptor-expressing membranes were incubated with 20 µg/mL adenosine deaminase (Roche, Cat. No. 10 102 105 001) for 15 min at room temperature. The receptor-expressing membranes were then combined with wheat germ agglutinin-coated yttrium silicate SPA beads (GE Healthcare, Cat. No. RPNQ0023) in a ratio of […] (w/w) and incubated for 30 min at room temperature. 30 µL of the membrane/bead mixture (0.25 µg and 25 µg per well respectively) were added to the 384-well OptiPlate™ well. To define total and non-specific binding, wells containing 1% DMSO or 1 µM CGS 15943 (Tocris Bioscience, Cat. No. 1699) respectively were also included in the experiment. The plate was incubated for 1 h at room temperature with agitation. The assay plate was then incubated for an h to allow the beads to settle before data were collected using a TopCount® (Perkin Elmer) scintillation counter. After normalization to total and non-specific binding, the percent effect at each compound concentration was calculated. The plot of percent effect versus the log of compound concentration was analyzed electronically using a 4-parameter logistic fit based on the Levenberg-Marquardt algorithm to generate IC50 values.

T1 sequence (P29274 whole entry): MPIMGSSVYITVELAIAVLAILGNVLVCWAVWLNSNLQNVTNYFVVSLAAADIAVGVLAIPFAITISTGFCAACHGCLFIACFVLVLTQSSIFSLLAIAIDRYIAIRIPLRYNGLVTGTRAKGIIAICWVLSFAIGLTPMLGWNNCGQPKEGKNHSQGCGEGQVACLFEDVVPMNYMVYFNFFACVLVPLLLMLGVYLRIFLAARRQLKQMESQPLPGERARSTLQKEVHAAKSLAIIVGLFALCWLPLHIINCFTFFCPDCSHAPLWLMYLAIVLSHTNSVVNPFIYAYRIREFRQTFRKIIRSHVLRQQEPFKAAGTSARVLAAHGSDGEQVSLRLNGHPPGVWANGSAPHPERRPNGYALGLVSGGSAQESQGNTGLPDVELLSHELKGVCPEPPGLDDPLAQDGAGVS

First: COc1cccc2c1nc(N)n1nc(CN(Cc3ccc(C(F)(F)F)cc3)CC(C)C)nc21 [Example 15.4, 2-((isobutyl(4-(trifluoromethyl)benzyl)amino)methyl)-7-methoxy-[1,2,4]triazolo[1,5-c]quinazolin-5-amine]
Second: COCCN(Cc1ccc(C(F)(F)F)cc1)Cc1nc2c3cccc(OC)c3nc(N)n2n1 [Example 15.15, 7-methoxy-2-(((2-methoxyethyl)(4-(trifluoromethyl)benzyl)amino)methyl)-[1,2,4]triazolo[1,5-c]quinazolin-5-amine]
The IC50 of the first is 1.6-fold lower: 4.2 nM for the first, 6.6 nM for the second.

`COc1cccc2c1nc(N)n1nc(CC(=O)NCc3ccc(C(F)(F)F)cc3)nc21` [Example 4.4, 2-(5-amino-7-methoxy-[1,2,4]triazolo[1,5-c]quinazolin-2-y1)-N-(4-(trifluoromethyl)benzyl)acetamide] and `COc1cccc2c1nc(N)n1nc(CCCNCc3ccc(C(F)(F)F)cc3)nc21` [Example 10.6, 7-methoxy-2-(3-((4-(trifluoromethyl)benzyl)amino)propyl)-[1,2,4]triazolo[1,5-c]quinazolin-5-amine] are within 1.5-fold of each other in IC50: 9.4 nM for the first, 8.7 nM for the second.

First: COc1cccc2c1nc(N)n1nc(CN(Cc3ccc(OC(F)(F)F)cc3)CC3CCCC3)nc21 [Example 15.9, 2-(((cyclopentylmethyl)(4-(trifluoromethoxy)benzyl)amino)methyl)-7-methoxy-[1,2,4]triazolo[1,5-c]quinazolin-5-amine]
Second: COc1cccc2c1nc(N)n1nc(CN(Cc3ccc(OC(F)(F)F)cc3)CC3CCC3)nc21 [Example 15.10, 2-(((cyclobutylmethyl)(4-(trifluoromethoxy)benzyl)amino)methyl)-7-methoxy-[1,2,4]triazolo[1,5-c]quinazolin-5-amine]
The IC50 of the first is 14-fold higher: 123 nM for the first, 8.5 nM for the second. The second is the more potent here.

Going from `COc1cccc2c1nc(N)n1nc(CN(CC(F)F)CC3CC3)nc21` [Example 17.1, 2-(((cyclopropylmethyl)(2,2-difluoroethyl)amino)methyl)-7-methoxy-[1,2,4]triazolo[1,5-c]quinazolin-5-amine] to `COc1cccc2c1nc(N)n1nc(CN(Cc3ncco3)CC3CC3)nc21` [Example 16.11, 2-(((cyclopropylmethyl)(oxazol-2-ylmethyl)amino)methyl)-7-methoxy-[1,2,4]triazolo[1,5-c]quinazolin-5-amine], the IC50 rises from 2.5 nM to 9.4 nM (3.8-fold).

`COc1cccc2c1nc(N)n1nc(CN(CC3CC3)C3CN(C(=O)OC(C)(C)C)C3)nc21` [Example 16.12, tert-butyl 3-(((5-amino-7-methoxy-[1,2,4]triazolo[1,5-c]quinazolin-2-yl)methyl)(cyclopropylmethyl)amino)azetidine-1-carboxylate] and `COc1cccc2c1nc(N)n1nc(CN(Cc3ccc(NC(=O)C(C)(C)C)nc3)CC3CC3)nc21` [Example 16.9] are within 1.5-fold of each other in IC50: 5.7 nM for the first, 5.2 nM for the second.

First: COc1cccc2c1nc(N)n1nc(CC(=O)NCc3cccnc3)nc21 [Example 4.3, 2-(5-amino-7-methoxy-[1,2,4]triazolo[1,5-c]quinazolin-2-yl)-N-(pyridin-3-ylmethyl)acetamide]
Second: COc1cccc2c1nc(N)n1nc(CNC(=O)CCc3ccccc3)nc21 [Example 2.2, N-((5-amino-7-methoxy-[1,2,4]triazolo[1,5-c]quinazolin-2-yl)methyl)-3-phenylpropanamide]
The IC50 of the first is 3.5-fold higher: 44.3 nM for the first, 12.7 nM for the second.

Going from `COc1cccc2c1nc(N)n1nc(CN(C)CCc3ccc(C(F)(F)F)cc3)nc21` [Example 15.13, 7-methoxy-2-((methyl(4-(trifluoromethyl)phenethyl)amino)methyl)-[1,2,4]triazolo[1,5-c]quinazolin-5-amine] to `COc1cccc2c1nc(N)n1nc(CN(Cc3ccc(C(F)(F)F)cc3)CC3CC3)nc21` [Example 15.2, 2-(((cyclopropylmethyl)(4-(trifluoromethyl)benzyl)amino)methyl)-7-methoxy-[1,2,4]triazolo[1,5-c]quinazolin-5-amine], the IC50 falls from 7.9 nM to 3 nM (2.6-fold).

Going from `COc1cccc2c1nc(N)n1nc(CNC(=O)OCc3ccccc3)nc21` [Example 6.1, benzyl ((5-amino-7-methoxy-[1,2,4]triazolo[1,5-c]quinazolin-2-yl)methyl)carbamate] to `COc1cccc2c1nc(N)n1nc(CNC(=O)CCc3cccc(C(F)(F)F)c3)nc21` [Example 2.5], the IC50 rises from 5.9 nM to 25.8 nM (4.4-fold).

Compared with `COc1cccc2c1nc(N)n1nc(CN(CC(C)F)CC(C)F)nc21` (stereo not drawn) [Example 13.1, 2-((bis(2-fluoropropyl)amino)methyl)-7-methoxy-[1,2,4]triazolo[1,5-c]quinazolin-5-amine], `COc1cccc2c1nc(N)n1nc(CCNCC(F)(F)C(F)(F)F)nc21` [Example 22.8, 7-methoxy-2-(2-((2,2,3,3,3-pentafluoropropyl)amino)ethyl)-[1,2,4]triazolo[1,5-c] quinazolin-5-amine] is 3.3-fold higher in IC50: 3.3 nM for the first, 10.9 nM for the second. The first is the more potent here.

Compared with `CCN(Cc1nc2c3cccc(OC)c3nc(N)n2n1)CC1CCN(c2ncc(F)cn2)CC1` [Example 15.16, 2-((ethyl((1-(5-fluoropyrimidin-2-yl)piperidin-4-yl)methyl)amino)methyl)-7-methoxy-[1,2,4]triazolo[1,5-c]quinazolin-5-amine], `COc1cccc2c1nc(N)n1nc(CN(Cc3ccc(OC(F)(F)F)cc3)CC3CC3)nc21` [Example 15.7, 2-(((cyclopropylmethyl)(4-(trifluoromethoxy)benzyl)amino)methyl)-7-methoxy-[1,2,4]triazolo[1,5-c]quinazolin-5-amine] is 7.9-fold lower in IC50: 31 nM for the first, 3.9 nM for the second.

First: COc1cccc2c1nc(N)n1nc(CN(CCC3CC3)Cc3ccc(C(F)(F)F)cc3)nc21 [Example 15.6, 2-(((2-cyclopropylethyl)(4-(trifluoromethyl)benzyl)amino)methyl)-7-methoxy-[1,2,4]triazolo[1,5-c]quinazolin-5-amine]
Second: C=CCN(Cc1ccc(OC(F)(F)F)cc1)Cc1nc2c3cccc(OC)c3nc(N)n2n1 [Entry 21.2]
The IC50 of the first is 2.3-fold higher: 7.1 nM for the first, 3.1 nM for the second. The second is the more potent here.

Compared with `COc1cccc2c1nc(N)n1nc(C[C@@H](C)NCc3oc(C)nc3C)nc21` [Example 24.3, (R)-2-(2-(((2,4-dimethyloxazol-5-yl)methyl)amino)propyl)-7-methoxy-[1,2,4]triazolo[1,5-c]quinazolin-5-amine], `COc1cccc2c1nc(N)n1nc(CCN[C@@H](C)c3ccc(C(F)(F)F)cc3)nc21` [Example 22.7, (S)-7-methoxy-2-(2-((1-(4-(trifluoromethyl)phenyl)ethyl)amino)ethyl)-[1,2,4]triazolo[1,5-c]quinazolin-5-amine] is 2.5-fold higher in IC50: 11.1 nM for the first, 27.3 nM for the second. The first is the more potent here.

Going from `COc1cccc2c1nc(N)n1nc(CN(Cc3ccc(OC(F)(F)F)cc3)S(=O)(=O)C(F)(F)F)nc21` [Example 19.4, N-((5-amino-7-methoxy-[1,2,4]triazolo[1,5-c]quinazolin-2-yl)methyl)-1,1,1-trifluoro-N-(4-(trifluoromethoxy)benzyl)methanesulfonamide] to `COc1cccc2c1nc(N)n1nc(CN(Cc3ccc(-c4ccccn4)cc3)CC3CC3)nc21` [Example 16.13, 2-(((cyclopropylmethyl)(4-(pyridin-2-yl)benzyl)amino)methyl)-7-methoxy-[1,2,4]triazolo[1,5-c]quinazolin-5-amine], the IC50 falls from 50.4 nM to 2.6 nM (19-fold). The second is the more potent here.

`COc1cccc2c1nc(N)n1nc(CC(=O)N[C@H]3CCOc4cc(F)ccc43)nc21` [Example 4.7, (S)-2-(5-amino-7-methoxy-[1,2,4]triazolo[1,5-c]quinazolin-2-yl)-N-(7-fluorochroman-4-yl)acetamide] was tested, and the IC50 was 6.7 nM.
